From patent US9562053B2, “Benzo-fused heterocyclic derivatives useful as agonists of GPR120” (Janssen Pharmaceutica NV, priority 2013, dated 2017)

Experiments:
Format in all cases: cell-based
[1] = biological target: T1, Human GPR120 short form (Homo sapiens, UniProt Q5NUL3); assay: Human GPR120 in Calcium Flux Assay, Procedure Calcium A (2500 cells/well)
T1 construct: expressed in transfected cells
T1 sequence (Q5NUL3 1-361): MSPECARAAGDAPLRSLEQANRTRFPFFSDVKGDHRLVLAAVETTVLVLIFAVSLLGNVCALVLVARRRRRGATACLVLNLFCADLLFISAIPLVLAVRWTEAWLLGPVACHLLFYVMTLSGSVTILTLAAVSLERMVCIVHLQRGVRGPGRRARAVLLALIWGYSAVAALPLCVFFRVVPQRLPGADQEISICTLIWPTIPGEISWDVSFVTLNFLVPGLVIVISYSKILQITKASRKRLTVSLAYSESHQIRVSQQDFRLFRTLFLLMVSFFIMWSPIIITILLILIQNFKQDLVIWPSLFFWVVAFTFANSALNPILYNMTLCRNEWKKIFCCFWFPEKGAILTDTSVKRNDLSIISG
Text: This in vitro assay serves to assess test compound agonist activity against the short splice variant (SVS with Accession number NM_001195755.1 confirmed by sequencing data) of the GPR120 receptor. The Human Short splice variant #2 (NM_001195755.1) is missing an in-frame coding exon compared to variant 1 (the Human Long splice variant NM_181745.3), resulting in a shorter isoform (GPR120-S) lacking a 16 aa protein segment compared to isoform GPR120-L. The assay platform utilizes HEK-293 cells stably transfected to express the Human GPR120 short form. These cells are first loaded with the Ca^+2 sensitive dye, Fluo-4 NW. Upon stimulation, intracellular released Ca^+2 can bind to the dye and alter its fluorescence intensity. This increase in fluorescence signal, and thus the flux in intracellular [Ca^+2], is detected and quantitated by fluorescence imaging using a FLIPR reader. The effect of the agonist is measured as a function of concentration and used to calculate an EC50 based upon a response curve.
In this procedure 2500 cells/well were employed.
A Human GPR120 clone (Genbank accession number NM_001195755.1) was placed into the pcDNA3.1 mammalian expression vector carrying the neomycin resistance gene. A stable mammalian cell was generated by placing the above clone into a HEK293 background. Clonal cells responding to long chain fatty acids had expression levels of GPR120 confirmed by RT-qPCR. Human HEK-GPR120 cells were cultured in Dulbecco's Modified Eagle's Medium (DMEM)/F12 medium supplemented with 10% fetal bovine serum (FBS), 1% L-Glutamine and 1% penicillin/streptomycin and 0.5 mg/ml G-418. Cells were split 2 times a week to keep the cells in the log-phase growth.
In preparation for the assay, HEK cells stably transfected with Human GPR120 (2.5K cells per well in 25 uL growth medium) were seeded into 384-well plates and then incubated overnight (37° C., 5% CO2). The next day, the media was changed to 20 μl assay buffer and the cell starved for 1 h at 37° C. The dye loading solution (2× dye) was prepared using 10 ml assay buffer, 100 μl of 250 mM probenecid, 1 bottle of Component A, and 20 μl of dye in DMSO. Twenty μl of the 2× dye loading buffer was then added to each well. The plates were incubated at 37° C. for 30 min, then at room temperature for an additional 15 minutes, before performing the assay on FLIPR.
Test compounds were prepared in assay buffer (2 μl of test compound+198 μl assay buffer, final DMSO in assay plate is 0.2%) at the desired concentration, more particularly at 100 μM, 50 μM, 25 μM, 12.5 μM, 6.25 μM, 3.125 μM, 1.562 μM, 0.781 μM, 0.391 μM, 0.195 μM, 0.098 μM, 0.049 μM, 0.024 μM and 0.012 μM.
The assay was performed on a FLIPR plate reader using the following parameters. Baseline was read for 10 seconds at 1 sec intervals. The program was set to transfer 10 μL of ligand from compound plate to cell plate after baseline reading. Aspiration was executed at: 10 μl/sec speed, 4.6 μl height; Dispensing was executed at: 30 μl/sec speed, 45 μl height. After compound addition, each well was read for 300 sec, with measurements collected at 1 sec intervals.
The kinetic data from the FLIPR was based upon a 5 minute window for data collection. The fluorescence of each sample well was used for individual calculations of a normalized RFU value, which was defined as maximum response minus the minimum response. The normalized fluorescence reading (RFU) was calculated as follows: RFU=Fmax−Fmin
(§1) The data were fitted to a sigmoidal dose-response curve with a variable Hill slope (<2) using nonlinear regression with GraphPad Prism 5.0 to calculate the EC50 values. The Fitting Equation was: Y=Bottom+(Top−Bottom)/(1+10^((LogEC50−X)*HillSlope)), where X is the log of the concentration and Y is the response.

[2] = biological target: T2, short form of the GPR120 receptor (Homo sapiens, UniProt Q5NUL3); assay: Human GPR120 DiscoveRx PathHunter Beta-Arrestin Assay, Procedure β-arrestin B (5000 cells/well)
T2 construct: host or cells: PathHunter CHO-K1 GPR120S β-Arrestin Cell Line
T2 sequence (Q5NUL3 1-361): T1 sequence (Q5NUL3 1-361)
Text: (§2) The binding of an agonist (medium/long chain fatty acids or small molecule agonists) to the G-protein-coupled receptor GPR120 activates phospholipase C, leading to release of intracellular Ca^+2 through the generation of inositol 1,4,5-trisphosphate (InsP3 or IP3). GPR120 activation can also trigger intracellular signaling via recruitment of β-Arrestin. In the present method, agonist-induced activation of the human GPR120 receptor is monitored through the use of PathHunter CHO-K1 GPR120 β-Arrestin Cell Line engineered by DiscoveRx, as detailed below. The cell lines are designed to co-express both the ProLink/Enzyme Donor (PK)-tagged GPCR and the Enzyme Activator (EA)-tagged β-Arrestin fusion proteins. Upon GPR120 receptor stimulation/activation, the EA-tagged β-Arrestin portion is translocated to the tagged receptor, where the two enzyme fragments are brought within close proximity. Under these conditions, these fragments can interact and form an active Beta-gal enzyme complex through Enzyme Fragment Complementation (EFC). This active Beta-gal complex can enzymatically hydrolyse the substrate to produce a detectable light signal; therefore, activation as a function of agonist concentration can be expressed as an EC50 value to determine relative compound activities. This in vitro assay therefore serves to assess compound agonist activity of the GPR120.
In Procedure β-arrestin B the cells used were PathHunter CHO-K1 GPR120S β-Arrestin Cell Line, expressing the short form of the GPR120 receptor (Accession #NM_181745), with 5000 cells/well.
(§3) The selected CHO-K1 GPR120 β-Arrestin cells were cultured in Ham's F12 media supplemented with 10% fetal bovine serum (FBS), 1% Glutamine, 1×p/s, 800 μg/ml G418 and 300 μg/ml Hygromycin B (for selection). Cell stocks were maintained and grown in a sub-confluent state using standard cell culture procedures. The day before the experiment, the cells were harvested with non-enzymatic cell dissociation buffer and re-suspended in complete growth media at the desired concentration. A Corning 384-plate was then seeded with the proper number of cells in a volume of 25 μL, per well. The seeded plates were incubated overnight at 37° C.
(§4) On the day of the experiment, the Assay Buffer containing (a) HBSS with Ca^++ and Mg^++, (b) 20 mM HEPES, and (c) 0.1% BSA stabilizer (pH 7.4) was prepared. The growth medium was gently removed from the cell plates and 20 μL of Assay Buffer added to each well. The plate was then incubated at 37° C. for 60 mins. Test compounds were serially diluted in Assay Buffer to desired concentrations (more particularly, to one or more of the following μM concentrations: 25 μM, 12.5 μM, 6.25 μM, 3.125 μM, 1.562 μM, 0.781 μM, 0.391 μM, 0.195 μM, 0.098 μM, 0.049 μM, 0.024 μM, 0.012 μM). Five μl of compound dilution was then added to each well and the plate incubated at 37° C. for 90 mins. The detection reagents were prepared according to the manufacture's instruction. Twelve μL of the detection reagents were added to each well and the plate incubated at room temperature for 60 mins.
(§5) The plates were read on an EnVision instrument, using Protocol name: Luminescence, Plate type: 384 Costar, Measurement height: 3 mm, Measurement time: 1 s, Aperture: 384 Plate aperture. The % activity relative to the positive control was calculated using the following equation:
as §1, with “% Activity values” for “data”, “were plotted versus the concentration of test compound and” for “were”, “a” for “a variable”, “slope=1 (fixed value)” for “slope (<2)”

[3] = biological target: T3, long form of human GPR120 (Homo sapiens, UniProt Q5NUL3); assay: Human GPR120 DiscoveRx PathHunter Beta-Arrestin Assay, Procedure β-arrestin A (3000 cells per well); conditions: read-out: GPR120 B-arrestin A EC50
T3 construct: host or cells: PathHunter CHO-K1 GPR120 β-Arrestin Cell Line
T3 sequence (Q5NUL3 1-377 isoform Q5NUL3-1): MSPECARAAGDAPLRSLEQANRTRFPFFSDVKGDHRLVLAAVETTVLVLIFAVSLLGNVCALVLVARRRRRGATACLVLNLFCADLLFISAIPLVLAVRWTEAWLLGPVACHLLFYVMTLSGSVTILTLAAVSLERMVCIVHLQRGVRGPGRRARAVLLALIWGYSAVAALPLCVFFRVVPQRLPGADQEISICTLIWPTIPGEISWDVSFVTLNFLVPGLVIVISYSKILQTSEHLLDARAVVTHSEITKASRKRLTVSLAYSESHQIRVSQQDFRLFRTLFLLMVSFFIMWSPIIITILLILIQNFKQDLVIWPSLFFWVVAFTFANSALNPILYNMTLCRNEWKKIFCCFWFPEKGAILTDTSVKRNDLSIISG
Text: as §2
In Procedure β-arrestin A, the cell used were PathHunter CHO-K1 GPR120 β-Arrestin Cell Line, expressing the long form of human GPR120 (Genbank accession number NM_181745), with 3000 cells per well.
as §3, §4, §5
as §1, with “% Activity values” for “data”, “were plotted versus the concentration of test compound and” for “were”, “a” for “a variable”, “slope=1 (fixed value)” for “slope (<2)”

EC50 [1]	EC50 [2]	EC50 [3]	Structure (SMILES)
382 nM	1190 nM		Cc1nc2cc(Cl)cc(COc3ccc(CCC(=O)O)c(C)c3C)c2s1 [Compound 121, 3-{4-[(5-Chloro-2-methyl-1,3-benzothiazol-7-yl)methoxy]-2,3-dimethylphenyl}propanoic acid]
		2220 nM	CCCc1cc2cc(C(C)(F)F)cc(COc3ccc(CCC(=O)O)c(C)c3C)c2o1 [Compound 79, 3-(4-{[5-(1,1-Difluoroethyl)-2-propyl-1-benzofuran-7-yl]methoxy}-2,3-dimethylphenyl)propanoic acid]
	1440 nM		Cc1c(CCC(=O)O)ccc(OCc2cc(Cl)cc3sc(C(F)(F)F)nc23)c1C [Compound 119, 3-(4-{[6-Chloro-2-(trifluoromethyl)-1,3-benzothiazol-4-yl]methoxy}-2,3-dimethylphenyl)propanoic acid]
468 nM	772 nM		Cc1c(CCC(=O)O)ccc(OCc2cc(F)cc3sc(CC(C)C)nc23)c1C [Compound 115, 3-(4-{[6-Fluoro-2-(2-methylpropyl)-1,3-benzothiazol-4-yl]methoxy}-2,3-dimethylphenyl)propanoic acid]
121 nM	110 nM		Cc1cc2cc(OC(F)(F)F)cc(COc3ccc(CCC(=O)O)c(C(F)(F)F)c3)c2o1 [Compound 112, 3-[4-{[2-Methyl-5-(trifluoromethoxy)-1-benzofuran-7-yl]methoxy}-2-(trifluoromethyl)phenyl]propanoic acid]

The remaining lines, values behind:

Structure (SMILES)	EC50 [1]	EC50 [2]	EC50 [3]
Cc1oc2cccc(COc3ccc(CCC(=O)O)c(F)c3F)c2c1C [Compound 1, 3-{4-[(2,3-Dimethyl-1-benzofuran-4-yl)methoxy]-2,3-difluorophenyl}propanoic acid]			> 20000 nM
Cc1c(CCC(=O)O)ccc(OCc2cc(F)cc3sc(C(F)(F)F)nc23)c1C [Compound 117, 3-(4-{[6-Fluoro-2-(trifluoromethyl)-1,3-benzothiazol-4-yl]methoxy}-2,3-dimethylphenyl)propanoic acid]	422 nM	681 nM	
Cc1nc2c(COc3ccc(CCC(=O)O)c(C)c3C)cc(OC(F)(F)F)cc2s1 [Compound 118, 3-(2,3-Dimethyl-4-{[2-methyl-6-(trifluoromethoxy)-1,3-benzothiazol-4-yl]methoxy}phenyl)propanoic acid]	65 nM	237 nM	
Cc1cc2c(COc3ccc(CCC(=O)O)c(F)c3F)cccc2o1 [Compound 6, 3-{2,3-Difluoro-4-[(2-methyl-1-benzofuran-4-yl)methoxy]phenyl}propanoic acid]			> 20000 nM
